According to ChEMBL document CHEMBL3045033, “Synthesis of new potential anticancer agents based on 4-thiazolidinone and oleanane scaffolds” (Med Chem Res, 2012):
Where “and” joins values, the source holds several entries; their conditions need not be identical. Equal entries are not always repeated.

Key:
Format in all cases: functional
MOLT-4 [1] = experiment: Cytotoxicity against Homo sapiens (human) MOLT4 cells at 10^-4 to 10^-8 M after 48 hr by SRB assay; conditions: MOLT-4, 48 h, read-out: pTGI (converted)
SNB-19 = experiment: Cytotoxicity against Homo sapiens (human) SNB19 cells at 10^-4 to 10^-8 M after 48 hr by SRB assay; conditions: SNB-19, 48 h, read-out: pTGI (converted)
K562 [2] = experiment: Cytotoxicity against Homo sapiens (human) K562 cells after 48 hr by SRB assay; conditions: K562, 48 h
HCT-15 = experiment: Cytotoxicity against Homo sapiens (human) HCT15 cells after 48 hr by SRB assay; conditions: HCT-15, 48 h
IGROV-1 [3] = experiment: Cytotoxicity against Homo sapiens (human) IGROV1 cells at 10^-4 to 10^-8 M after 48 hr by SRB assay; conditions: IGROV-1, 48 h, read-out: pTGI (converted)
BT-549 = experiment: Cytotoxicity against Homo sapiens (human) BT549 cells after 48 hr by SRB assay; conditions: BT-549, 48 h
PC-3 [4] = experiment: Cytotoxicity against Homo sapiens (human) PC3 cells assessed as cellular growth at 10^-5 M after 48 hr by SRB assay relative to untreated control
MDA-MB-231 = experiment: Cytotoxicity against Homo sapiens (human) MDA-MB-231 cells after 48 hr by SRB assay; conditions: MDA-MB-231, 48 h
SF-268 [5] = experiment: Cytotoxicity against Homo sapiens (human) SF268 cells at 10^-4 to 10^-8 M after 48 hr by SRB assay; conditions: SF-268, 48 h, read-out: pTGI (converted)
786-0 = experiment: Cytotoxicity against Homo sapiens (human) 786-0 cells after 48 hr by SRB assay; conditions: 786-0, 48 h
UACC-62 = experiment: Cytotoxicity against Homo sapiens (human) UACC62 cells after 48 hr by SRB assay; conditions: UACC-62, 48 h
SK-MEL-2 = experiment: Cytotoxicity against Homo sapiens (human) SK-MEL-2 cells after 48 hr by SRB assay; conditions: SK-MEL-2, 48 h
TK-10 = experiment: Cytotoxicity against Homo sapiens (human) TK10 cells after 48 hr by SRB assay; conditions: TK-10, 48 h
HOP-92 = experiment: Cytotoxicity against Homo sapiens (human) HOP92 cells after 48 hr by SRB assay; conditions: HOP-92, 48 h
MDA-MB-435 [6] = experiment: Cytotoxicity against Homo sapiens (human) MDA-MB-435 cells after 48 hr by SRB assay; conditions: MDA-MB-435, 48 h; for CC50: read-out: pLC50 (the source's name) (converted)
SF-268 [7] = experiment: Cytotoxicity against Homo sapiens (human) SF268 cells after 48 hr by SRB assay; conditions: SF-268, 48 h
MDA-MB-435 [8] = experiment: Cytotoxicity against Homo sapiens (human) MDA-MB-435 cells at 10^-4 to 10^-8 M after 48 hr by SRB assay; conditions: MDA-MB-435, 48 h, read-out: pTGI (converted)
RPMI-8226 = experiment: Cytotoxicity against Homo sapiens (human) RPMI8226 cells after 48 hr by SRB assay; conditions: RPMI-8226, 48 h
Malme-3M [9] = experiment: Cytotoxicity against Homo sapiens (human) MALME-3M cells after 48 hr by SRB assay; conditions: for CC50: read-out: pLC50 (the source's name) (converted)
IGROV-1 [10] = experiment: Cytotoxicity against Homo sapiens (human) IGROV1 cells after 48 hr by SRB assay
NCI-H522 [11] = experiment: Cytotoxicity against Homo sapiens (human) NCI-H522 cells after 48 hr by SRB assay; conditions: NCI-H522, 48 h; for CC50: read-out: pLC50 (the source's name) (converted)
KM12 = experiment: Cytotoxicity against Homo sapiens (human) KM12 cells after 48 hr by SRB assay; conditions: KM12, 48 h
HOP-62 = experiment: Cytotoxicity against Homo sapiens (human) HOP62 cells after 48 hr by SRB assay
RXF 393 [12] = experiment: Cytotoxicity against Homo sapiens (human) RXF393 cells after 48 hr by SRB assay
HL-60(TB) = experiment: Cytotoxicity against Homo sapiens (human) HL-60(TB) cells after 48 hr by SRB assay; conditions: HL-60, 48 h
SN12C = experiment: Cytotoxicity against Homo sapiens (human) SN12C cells after 48 hr by SRB assay
NCI-H460 = experiment: Cytotoxicity against Homo sapiens (human) NCI-H460 cells after 48 hr by SRB assay; conditions: NCI-H460, 48 h
OVCAR-8 = experiment: Cytotoxicity against Homo sapiens (human) OVCAR8 cells after 48 hr by SRB assay; conditions: OVCAR-8, 48 h
NCI-H522 [13] = experiment: Cytotoxicity against Homo sapiens (human) NCI-H522 cells at 10^-4 to 10^-8 M after 48 hr by SRB assay; conditions: NCI-H522, 48 h, read-out: pTGI (converted)
T47D = experiment: Cytotoxicity against Homo sapiens (human) T47D cells after 48 hr by SRB assay
NCI-H23 = experiment: Cytotoxicity against Homo sapiens (human) NCI-H23 cells after 48 hr by SRB assay; conditions: NCI-H23, 48 h
SR = experiment: Cytotoxicity against Homo sapiens (human) SR cells assessed as cellular growth at 10^-5 M after 48 hr by SRB assay relative to untreated control
SF-295 = experiment: Cytotoxicity against Homo sapiens (human) SF295 cells after 48 hr by SRB assay; conditions: SF-295, 48 h
A549 = experiment: Cytotoxicity against Homo sapiens (human) A549 cells after 48 hr by SRB assay; conditions: A549, 48 h
K562 [14] = experiment: Cytotoxicity against Homo sapiens (human) K562 cells at 10^-4 to 10^-8 M after 48 hr by SRB assay; conditions: K562, 48 h, read-out: pTGI (converted)
RXF 393 [15] = experiment: Cytotoxicity against Homo sapiens (human) RXF393 cells at 10^-4 to 10^-8 M after 48 hr by SRB assay; conditions: RXF 393, 48 h, read-out: pTGI (converted)
PC-3 [16] = experiment: Cytotoxicity against Homo sapiens (human) PC3 cells after 48 hr by SRB assay; conditions: PC-3, 48 h
Hs-578T = experiment: Cytotoxicity against Homo sapiens (human) Hs578T cells after 48 hr by SRB assay
Malme-3M [17] = experiment: Cytotoxicity against Homo sapiens (human) MALME-3M cells at 10^-4 to 10^-8 M after 48 hr by SRB assay; conditions: read-out: pTGI (converted)
K562 [18] = experiment: Cytotoxicity against Homo sapiens (human) K562 cells assessed as cellular growth at 10^-5 M after 48 hr by SRB assay relative to untreated control
MOLT-4 [19] = experiment: Cytotoxicity against Homo sapiens (human) MOLT4 cells assessed as cellular growth at 10^-5 M after 48 hr by SRB assay relative to untreated control

COC(=O)[C@]12CCC(C)(C)C[C@H]1C1=CC[C@@H]3[C@@]4(C)CC/C(=N\O)C(C)(C)[C@@H]4CC[C@@]3(C)[C@]1(C)CC2
TGI (MOLT-4 [1]): > 100 µM | TGI (SNB-19): 69.2 µM | GI50 (K562 [2]): 37.2 µM | GI50 (HCT-15): 24 µM | TGI (IGROV-1 [3]): > 100 µM | GI50 (BT-549): 64.6 µM | Activity (PC-3 [4]): 38.63% | GI50 (MDA-MB-231): 20.4 µM | TGI (SF-268 [5]): 56.2 µM | GI50 (786-0): 17.8 µM | GI50 (UACC-62): 22.4 µM | GI50 (SK-MEL-2): 64.6 µM | GI50 (TK-10): 33.9 µM | GI50 (HOP-92): 19.1 µM | GI50 (MDA-MB-435 [6]): 39.8 µM | CC50 (MDA-MB-435 [6]): > 100 µM | GI50 (SF-268 [7]): 24 µM | TGI (MDA-MB-435 [8]): > 100 µM | GI50 (RPMI-8226): 39.8 µM | CC50 (Malme-3M [9]): > 100 µM | GI50 (IGROV-1 [10]; Homo sapiens, IGROV-1, 48 h): 33.9 µM | GI50 (NCI-H522 [11]): 26.3 µM | CC50 (NCI-H522 [11]): > 100 µM | GI50 (KM12): 38.9 µM | GI50 (HOP-62; Homo sapiens, HOP-62, 48 h): 21.4 µM | GI50 (RXF 393 [12]; Homo sapiens, RXF 393, 48 h): 18.2 µM | GI50 (HL-60(TB)): 58.9 µM | GI50 (SN12C): 20.9 µM | GI50 (NCI-H460): 21.9 µM | GI50 (OVCAR-8): 34.7 µM | TGI (NCI-H522 [13]): 66.1 µM | GI50 (T47D): 25.1 µM | GI50 (NCI-H23): 20 µM | Activity (SR): -41.06% | GI50 (SF-295): 17.8 µM | GI50 (A549): 28.8 µM | TGI (K562 [14]): > 100 µM | TGI (RXF 393 [15]): 36.3 µM | GI50 (PC-3 [16]): 20.4 µM | GI50 (Hs-578T): 27.5 µM

CC1(C)CC[C@@]23CC[C@]4(C)[C@@](OC2=O)([C@@H]3C1)[C@@H](Br)C[C@@H]1[C@@]2(C)CC/C(=N\O)C(C)(C)[C@@H]2CC[C@]14C
TGI (MOLT-4 [1]): > 100 µM | TGI (SNB-19): > 100 µM | GI50 (K562 [2]): 56.2 µM | GI50 (HCT-15): 30.9 µM | GI50 (BT-549): 9.33 µM | Activity (PC-3 [4]): 38.45% | GI50 (MDA-MB-231): 17.8 µM | TGI (SF-268 [5]): > 100 µM | GI50 (786-0): 49 µM | GI50 (UACC-62): 18.6 µM | GI50 (SK-MEL-2): > 100 µM | GI50 (TK-10): 18.6 µM | GI50 (HOP-92): 4.37 µM | CC50 (MDA-MB-435 [6]): > 100 µM | GI50 (SF-268 [7]): 27.5 µM | GI50 (RPMI-8226): > 100 µM | GI50 (Malme-3M [9]): 3.02 µM | CC50 (Malme-3M [9]): > 100 µM | CC50 (NCI-H522 [11]): > 100 µM | GI50 (KM12): 8.91 µM | GI50 (HOP-62; Homo sapiens, HOP-62, 48 h): 40.7 µM | TGI (Malme-3M [17]): 23.4 µM | GI50 (HL-60(TB)): > 100 µM | GI50 (SN12C): 37.2 µM | GI50 (NCI-H460): 19.1 µM | GI50 (OVCAR-8): 8.51 µM | GI50 (T47D): 17.4 µM | GI50 (NCI-H23): 38 µM | Activity (SR): -62.66% | Activity (K562 [18]): 21.17% | GI50 (SF-295): 14.1 µM | Activity (MOLT-4 [19]): 20.29% | GI50 (A549): 17.8 µM | TGI (K562 [14]): > 100 µM | GI50 (PC-3 [16]): 40.7 µM | GI50 (Hs-578T): 4.68 µM

COC(=O)[C@]12CCC(C)(C)C[C@H]1C1=CC[C@@H]3[C@@]4(C)CC/C(=N\OC(=O)/C=C5/SC(=O)NC5=O)C(C)(C)[C@@H]4CC[C@@]3(C)[C@]1(C)CC2
TGI (MOLT-4 [1]): 7.41 µM | TGI (SNB-19): 26.3 µM | TGI (IGROV-1 [3]): 4.17 µM | TGI (SF-268 [5]): 10.7 µM | TGI (MDA-MB-435 [8]): 9.12 µM | GI50 (IGROV-1 [10]): 8.91 µM and 1.91 µM | GI50 (HOP-62): 64.6 µM and 20 µM | GI50 (RXF 393 [12]): 6.61 µM and 1.91 µM | TGI (Malme-3M [17]): 7.76 µM | TGI (NCI-H522 [13]): 5.62 µM | Activity (SR): -22.69% | Activity (K562 [18]): 26.64% | Activity (MOLT-4 [19]): 2.28% | TGI (K562 [14]): 8.13 µM | TGI (RXF 393 [15]): 3.55 µM
